System: mitochondrial network
Assay: MitoTracker imaging of the mitochondrial network in cells incubated with compounds (Cytation 5)
Format: cell-based
Conditions: cells loaded with MitoTracker and hoechst; imaged while incubating with compounds; compared to the control; FIG. 15
Description: Cells were loaded with MitoTracker and hoechst as per manufactures instructions. Cells were washed with media then the media was replaced with media containing MitoXpress Xtra. Imaging was carried out as the plate was incubating with compounds using a Cytation 5 with a RFP LED/Filter set. Then, the lid of the present disclosure was placed onto the base of the plate assembly and MitoXpress Assay was run as normal.
The effects in structure are then reflected in the rates of oxygen consumption showing a direct correlation between structure and function. Different compounds lead to different effects. Some promote fusion, some inhibit fusion, some fission some limit fission. The novel insight with this method is to correlate changes in structure of the mitochondria to functional changes in respiration as shown in FIG. 16 in the same well for the first time.

Compound | effects of compounds on the mitochondrial network
CC[C@H]1/C=C/C=C/C[C@@H](C)[C@H](O)[C@@](C)(O)C(=O)[C@@H](C)[C@H](O)[C@@H](C)C(=O)[C@@H](C)[C@H](O)[C@@H](C)/C=C/C(=O)O[C@@H]2[C@H](C)[C@H](CC1)O[C@]1(CC[C@H](C)[C@H](C[C@@H](C)O)O1)[C@H]2C [Oligomycin] | cause the network to condense, and divide
C=C(C)[C@H]1Cc2c(ccc3c2O[C@@H]2COc4cc(OC)c(OC)cc4[C@@H]2C3=O)O1 [Rotenone] | cause the network to condense, and divide
Antimycin | cause the network to condense, and divide

Reference: patent publication US20250229272A1, “Headspace Eliminating Microtiter Plate Lid” (Agilent Technologies, Inc., priority 2022, published 2025)
